Series [1] can be described thus: Kinetic solubility (nephelometry). The note with it: 37 °C, aqueous buffer, kinetic from dmso stock; 1:99 DMSO/PSB buffer; PBS pH 7. In kind it is physicochemical. As for the experimental part: The solubility of selected compounds was evaluated by following a previously described method. A 10 mM stock solution of the compound was serially diluted in 100% DMSO and 2.5 μL of this solution was added to a 384-well UV-transparent plate (Greiner) containing 47.5 μL of PBS (pH = 7). The plate was incubated at 37 °C for 4 h and the light scattering was measured in a Nephelostar plus reader (BMG LABTECH). The data was fitted to a segmented linear regression for measuring the compound solubility.

Series [2] is described as follows: Human microsomal stability. The note with it: for microsomal stability % remanent: Human, sampling time 60 min; for microsomal CLint / half-life: human, liver microsomes, pH 7.4; for half-life: read-out: microsomal stability t1/2. The format is in vitro ADME. As for the experimental part:
The human microsomal stability of selected compounds was evaluated by following a previously described method. The human microsomes employed were purchased from Tebu-Xenotech. The compound was incubated with the microsomes at 37 °C in a 50 mM phosphate buffer (pH = 7.4) containing 3 mM MgCl2, 1 mM NADP, 10 mM glucose-6-phosphate and 1 U/mL glucose-6-phosphate-dehydrogenase. Samples (75 μL) were taken from each well at 0, 10, 20, 40, and 60 min and transferred to a plate containing 4 °C 75 μL acetonitrile and 30 μL of 0.5% formic acid in water were added for improving the chromatographic conditions. The plate was centrifuged ([…], 30 min) and supernatants were taken and analyzed in an UPLC-MS/MS (Xevo-TQD, Waters) by employing a BEH C18 column and an isocratic gradient of 0.1% formic acid in water: 0.1% formic acid acetonitrile (60:40). The metabolic stability of the compounds was calculated from the logarithm of the remaining compounds at each of the time point studied.

Series [3] in a line: Mouse microsomal stability. The format is in vitro ADME. As to conditions: for microsomal stability % remanent: Mouse, sampling time 60 min; for microsomal CLint / half-life: mouse, microsomes, pH 7.4; for half-life: read-out: microsomal stability t1/2.
Another series deals with CB1R (Homo sapiens, UniProt P21554). Briefly: CB1R Gi protein-mediated cAMP inhibition assay. In kind it is cell-based. The note with it: for functional selectivity ratio: CB1R vs CB2R cAMP EC50. An excerpt:
Given their excellent CB2R functional activity and ability to cross the blood–brain barrier, compounds 18p and 18o were selected for CB1R functional evaluation to assess potential risks of CB1R-mediated central effects. […] Full CB1R dose–response curves are provided in the Supporting Information (Figure S6).

The test system of another series is SH-SY5Y cells. Briefly: Neurite length in differentiated SH-SY5Y cells transfected with MAPT P301L + APP V717I. The format is cell-based, human. The note with it: for neuroprotective effect in presence of CB2R antagonist SR144528: 100 and 10 nM, SR144528 1 μM. An excerpt: Finally, to further validate these effects, a neuron-like in vitro model using differentiated SH-SY5Y cells was employed (Figure ). […] To simulate neurodegenerative conditions, cells were transiently transfected with expression plasmids encoding the MAPT P301L and APP V717I mutations. The MAPT P301L mutation promotes pathological tau hyperphosphorylation and aggregation, leading to microtubule destabilization, impaired axonal transport, and neurite retraction. , Meanwhile, the APP V717I mutation increases the production of long, aggregation-prone amyloidogenic peptides, disrupting cellular homeostasis through oxidative stress and cytoskeletal disorganization. ,
SH-SY5Y human neuroblastoma-derived cells (ECACC, 94030304) were cultured and differentiated in black 384-well plates (Revvity, 6057300). Plates were treated with laminin (1:500 dilution in PBS; Merck, L2020) by adding 25 μL per well and incubated for 2 h at room temperature. Subsequently, plates were washed three times with PBS. Cells were seeded at a density of 6.6 × 10^3 cells per well (in 50 μL) in culture medium. The base culture medium consisted of RPMI-1640 (Gibco, 61870) supplemented with 2% (v/v) fetal bovine serum (FBS; Merck, F7524), 1% (v/v) penicillin-streptomycin (P/S; Merck, P0781), and 0.1% (v/v) gentamicin (Merck, G1397).
Differentiation was initiated 24 h after plating. The culture medium was replaced with a differentiation medium composed of RPMI-1640 supplemented with 2% (v/v) FBS, 1% (v/v) P/S, 0.1% (v/v) gentamicin, and 10 μM all-trans retinoic acid (RA; Merck, R2625). Medium changes were performed every 3 days, and the plates were kept covered with aluminum foil to protect retinoic acid from light exposure. Six days later, cells were transfected with expression plasmids encoding MAPT P301L and APP V717I mutations employing Lipofectamine LTX (Thermo Fisher, 15338100) at a 1:2 proportion in Opti-MEM (Gibco, 11058-021) following the instructions of the manufacturer. After 6 h, the transfection medium was replaced with a differentiation medium composed of RPMI-1640, B27 supplement (1:50; Gibco, 17504), 1% (v/v) P/S, 0.1% (v/v) gentamicin, and 100 nM GLP-1 (Merck, G9416). 24 h later, test compounds were added using an Echo 650T acoustic dispenser (Labcyte) from a 10 mM stock solution in DMSO (Merck, D8418).
48 h after compound dispensation, cells were fixed with 4% paraformaldehyde (50 μL per well, Santa Cruz BT, sc-281692) for 20 min at 4 °C. Wells were then washed twice with HBSS (50 μL per wash, Merck, H8264) and incubated with 50 μL of blocking buffer for 30 min at room temperature. The blocking buffer consisted of HBSS supplemented with 5% BSA (w/v) (Merck, 10775835001) and 0.1% (v/v) Triton X-100 (Merck, T8787). After blocking, cells were incubated with an antibeta-tubulin antibody conjugated to Alexa Fluor 488 (1:500; BD Biosciences, 558605) and Draq5 nuclear stain (2.5 μM; Abcam, ab108410) diluted in blocking buffer. After incubation in the dark at room temperature, wells were washed once with 50 μL of HBSS and subsequently filled with 50 μL of blocking buffer prior to imaging.Images were acquired using an Operetta CLS High Content Screening System (Revvity) equipped with a 20× water-immersion objective. Fluorescent signals were detected using specific excitation/emission filter settings for each fluorophore: Alexa Fluor 488 (λex = 460–490 nm; λem = 500–550 nm) and Draq5 (λex = 615–645 nm; λem = 655–760 nm). For each well, nine nonoverlapping fields were captured under identical acquisition settings. Neurite length and complexity were quantified using Harmony software (version 4.9.2137.273; Revvity), applying a predefined analysis algorithm optimized for β-tubulin immunostaining. For each experiment, data were normalized to the average neurite length measured in the double-transfected condition (MAPT P301L + APP V717I) treated with vehicle, which was assigned a reference value of 100%. […]

Data on three molecules can be found in PMC12406204 (Journal of Medicinal Chemistry, 2025).

Molecules are shown by their SMILES. Values after ≈ are worked out from the molar mass of the structure shown.

Sequence of CB1R (P21554 whole entry): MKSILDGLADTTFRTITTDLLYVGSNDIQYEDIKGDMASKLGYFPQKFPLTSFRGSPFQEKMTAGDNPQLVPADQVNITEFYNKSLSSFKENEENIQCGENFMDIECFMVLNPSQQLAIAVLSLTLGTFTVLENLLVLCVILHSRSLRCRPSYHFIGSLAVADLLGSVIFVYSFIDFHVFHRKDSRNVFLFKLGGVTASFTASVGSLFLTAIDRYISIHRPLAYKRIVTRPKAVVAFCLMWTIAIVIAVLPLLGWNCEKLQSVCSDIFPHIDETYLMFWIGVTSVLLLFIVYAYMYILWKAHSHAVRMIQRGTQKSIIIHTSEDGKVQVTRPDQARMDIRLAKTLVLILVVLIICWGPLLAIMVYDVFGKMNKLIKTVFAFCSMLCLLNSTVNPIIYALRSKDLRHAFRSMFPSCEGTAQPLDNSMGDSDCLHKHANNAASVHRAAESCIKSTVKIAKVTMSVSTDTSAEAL

`NC(=O)[C@@H]1CCCCN1C(=O)c1nn(Cc2ccc(F)cc2)c2ccccc12` [18o]: the concentration in solution in series [1] (solubility at 4 h) was 43.7 µM (≈ 16.6 µg/mL). Moreover, in series [2], the “microsomal stability % remanent” value was 59.6%, the microsomal CLint was found to be 11.8 µL/min/mg and the half-life stood at 50.9 min. Moreover, in series [3], the “microsomal stability % remanent” value was 28.4%, the intrinsic metabolic clearance (microsomal CLint) was 26.1 µL/min/mg and the half-life worked out at 28 min. For the same molecule, on CB1R, it took 1070 ± 57 nM to reach a half-maximal effect (EC50), the maximal effect (Emax) came to 36% and the functional selectivity ratio is recorded as over 1780. Also, in the series with SH-SY5Y cells (1 nM), the “protective effect against neurite shortening” value is “neither compound produced a statistically significant effect”. Moreover, in the series on SH-SY5Y cells (10 nM to 1 μM), the “protective effect against neurite shortening” value is listed as “significant concentration-dependent protective effect”. Also, the “neuroprotective effect in presence of CB2R antagonist SR144528” value in the series with SH-SY5Y cells is reported as “reversed”.

Regarding `NC(=O)[C@H]1CCCCN1C(=O)c1nn(Cc2ccc(F)cc2)c2ccccc12` [18p], on CB1R, the EC50 was 755 ± 31 nM, the Emax is 45% and the functional selectivity ratio stood at 111.

The molecule `NC(=O)[C@@H]1CCCCN1C(=O)c1cn(CC2CCCCC2)c2ccccc12` [18e] displayed a solubility at 4 h in series [1] of 40.1 µM (≈ 14.7 µg/mL). In addition, in series [2], the “microsomal stability % remanent” value is 15.9%, the microsomal CLint was 67.3 µL/min/mg and the half-life was found to be 19.4 min. Further, in series [3], the “microsomal stability % remanent” value worked out at 22.3%, the intrinsic metabolic clearance (microsomal CLint) was determined as 54.3 µL/min/mg and the half-life came to 21.8 min. The “protective effect against neurite shortening” value in the series on SH-SY5Y cells (1 nM) was “neither compound produced a statistically significant effect”. Besides, the “protective effect against neurite shortening” value in the series on SH-SY5Y cells (10 nM to 1 μM) is recorded as “significant concentration-dependent protective effect”. Also, the “neuroprotective effect in presence of CB2R antagonist SR144528” value in the series on SH-SY5Y cells is “reversed”.
